Structures can show the parent of a compound that is named as a salt. Where two headings read alike, the source gives them in different places.
What was measured:
[1] = Urinary and bile excretion after oral administration, bioassay by cup method; format: in vivo; settings: rat, fasted rats, 10 mg/kg oral, Mean ± S.D. (n=5)
S. pneumoniae S-4288 = assay: In vivo antibacterial activity against systemic infection in mice; design: species or system mice (ICR-S); settings: Streptococcus pneumoniae, S4288; mice (ICR-S); oral, an hour after intraperitoneal infection; challenge dose 7.5 x 10^4 ~ 4.8 x 10^6 cfu/mouse; read-out: ED50 S. pneumoniae S-4288
Method: Experiment-2 In vivo antibacterial activity against systemic infection in mice (ICR-S)
The infections were produced by intraperitoneal injection of a suspension of the bacterial culture corresponding to the germ studied. The products were administered orally at an hour after the infection.

[2] = Absorption and distribution: concentration in blood and organs after oral administration, bioassay by cup method; format: in vivo; settings: rat, rats, fasted, 10 mg/kg oral, Mean ± S.D. (n=5); for concentration at 0.5 h: 1/2 hr after administration; for concentration at 1 h: 1 hr after administration; for concentration at 2 h: 2 hr after administration; for concentration at 4 h: 4 hr after administration; for concentration at 6 h: 6 hr after administration; for concentration at 8 h: 8 hr after administration
S. pneumoniae 28 = assay: In vitro antibacterial activity, MIC (clinical isolates); format: cell-based; settings: Streptococcus pneumoniae, 10^6 cells/ml, clinical isolate
S. pneumoniae 24 = assay: as above; format: cell-based; settings: Streptococcus pneumoniae; S. pneumoniae 24; 10^6 cells/ml; clinical isolate; read-out: MIC
C. difficile I-E = assay: In vitro antibacterial activity, MIC (standard strain); format: cell-based; settings: Clostridioides difficile; C. difficile I-E; 10^6 cells/ml; standard strain; read-out: MIC
[3] = kidney, read-out: Concentration in organs: Kidney
[4] = liver, read-out: Concentration in organs: Liver
[5] = lung, read-out: Concentration in organs: Lung
[6] = serum, read-out: Concentration in organs: Serum

## CCNCC1CCN(c2c(F)cc3c(=O)c(C(=O)O)cn(C4CC4)c3c2F)C1 (stereo not drawn) [Example 2, l-Cyclopropyl-7-(3-ethylaminomethyl-l-pyrrolidinyl)-6,8-difluoro-l,4-dihydro-4-oxo-3-quinolinecarboxylic acid hydrochloride]
[1]; bile 0 ~ 3 hr, read-out: Concentration, bile
  concentration at 3 h: 17100 ± 10000 ng/mL
[1]; bile 0 ~ 3 hr, read-out: Recovery, bile
  dose excreted at 3 h: 2.4 ± 1.6%
[1]; bile 0 ~ 6 hr, read-out: Recovery, bile
  dose excreted at 6 h: 4.3 ± 2.1%
[1]; bile 0 ~ 24 hr, read-out: Recovery, bile
  dose excreted at 24 h: 9.7 ± 3.1%
[1]; bile 3 ~ 6 hr, read-out: Concentration, bile
  concentration at 6 h: 16100 ± 6200 ng/mL
[1]; bile 6 ~ 24 hr, read-out: Concentration, bile
  concentration at 24 h: 10100 ± 2300 ng/mL
[1]; urine 0 ~ 3 hr, read-out: Concentration, urine
  concentration at 3 h: 44200 ± 27900 ng/mL
[1]; urine 0 ~ 3 hr, read-out: Recovery, urine
  dose excreted at 3 h: 3.5 ± 2%
[1]; urine 0 ~ 6 hr, read-out: Recovery, urine
  dose excreted at 6 h: 6.7 ± 4.3%
[1]; urine 0 ~ 24 hr, read-out: Recovery, urine
  dose excreted at 24 h: 13.5 ± 4.6%
[1]; urine 3 ~ 6 hr, read-out: Concentration, urine
  concentration at 6 h: 115000 ± 61000 ng/mL
[1]; urine 6 ~ 24 hr, read-out: Concentration, urine
  concentration at 24 h: 22100 ± 9800 ng/mL
S. pneumoniae S-4288
  ED50: 4.6 mg/kg
[2]; [3]
  concentration at 0.5 h: 8500 ± 310 ng/g
  concentration at 1 h: 6720 ± 540 ng/g
  concentration at 2 h: 4660 ± 300 ng/g
  concentration at 4 h: 2620 ± 590 ng/g
  concentration at 6 h: 1860 ± 110 ng/g
  concentration at 8 h: 980 ± 220 ng/g
[2]; [4]
  concentration at 0.5 h: 9480 ± 440 ng/g
  concentration at 1 h: 6240 ± 530 ng/g
  concentration at 2 h: 4320 ± 430 ng/g
  concentration at 4 h: 2360 ± 480 ng/g
  concentration at 6 h: 1620 ± 290 ng/g
  concentration at 8 h: 820 ± 190 ng/g
[2]; [5]
  concentration at 0.5 h: 3840 ± 420 ng/g
  concentration at 1 h: 2940 ± 220 ng/g
  concentration at 2 h: 1920 ± 330 ng/g
  concentration at 4 h: 1120 ± 310 ng/g
  concentration at 6 h: 780 ± 190 ng/g
  concentration at 8 h: 380 ± 80 ng/g
[2]; [6]
  concentration at 0.5 h: 1470 ± 190 ng/mL
  concentration at 1 h: 1300 ± 200 ng/mL
  concentration at 2 h: 900 ± 190 ng/mL
  concentration at 4 h: 420 ± 150 ng/mL
  concentration at 6 h: 260 ± 90 ng/mL
  concentration at 8 h: 120 ± 40 ng/mL
S. pneumoniae 28
  MIC: 0.05 µg/mL
S. pneumoniae 24
  MIC: 0.05 µg/mL
C. difficile I-E
  MIC: 0.78 µg/mL

Source: patent EP0183129A1, “Quinolonecarboxylic acid derivatives” (KYORIN PHARMACEUTICAL CO., LTD., priority 1984, dated 1986)
